Assay results taken from patent US20020013362A1 (priority 2000, published 2002).

Tests used:
[1] = system: patients with melanoma; conditions: cited from earlier work
[2] = system: adult leukemia, solid tumors, and pediatric solid tumor patients; assay: Earlier published trials of the Q4D paclitaxel schedule; format: in vivo, human; conditions: one patient with a recurrent large metastatic melanoma
Description: An added benefit to this regimen includes a reduction in myelosupression. To this end, we devised the Q4 day (Q4D)×3 every 21-day treatment schedule which has the added value of increasing the dose intensity during each 21-day treatment period beyond that of the once every 21-day schedule (Ainsworth S. K., and Helson, L., U.S. Pat. No. 5,696,153 issued Dec. 9, 1997). […] During these trials an anecdotal twelve-month partial response in a patient with a recurrent large metastatic melanoma was observed. […]

[3] = system: patients with melanoma
[4] = system: metastatic melanoma; assay: Phase II M D Anderson trial of paclitaxel Q4Dx3 every 21 days, tumor responses; format: in vivo, human
Description: Cytokines and therapeutic agents which may be used include, for example, platinum compounds (e.g., spiroplatin, cisplatin, and carboplatin), thalidomide, methotrexate, adriamycin, mitomycin, ansamitocin, bleomycin, cytosine arabinoside, arabinosyl adenine, mercaptopolylysine, vincristine, busulfan, chlorambucil, melphalan (e.g., PAM, L-PAM or phenylalanine mustard), mercaptopurine, mitotane, carmustine, procarbazine hydrochloride dactinomycin (actinomycin D), daunorubicin hydrochloride, doxorubicin hydrochloride, taxol, mitomycin, plicamycin (mithramycin), aminoglutethimide, estramustine phosphate sodium, flutamide, leuprolide acetate, megestrol acetate, tamoxifen citrate, testolactone, trilostane, amsacrine (m-AMSA), asparaginase (L-asparaginase) Erwina asparaginase, etoposide (VP-16), interferon α-2a, interferon α-2b, teniposide (VM-26), vinblastine sulfate (VLB), vincristine sulfate, bleomycin, bleomycin sulfate, methotrexate, adriamycin, and arabinosyl; biological response modifiers such as muramyldipeptide, muramyltripeptide, microbial cell wall components, lymphokines (e.g., bacterial endotoxin such as lipopolysaccharide, macrophage activation factor), sub-units of bacteria (such as Mycobacteria, Corynebacteria), the synthetic dipeptide N-acetyl-muramyl-L-alanyl-D-isoglutamine; hormones such as growth hormone, melanocyte stimulating hormone, estradiol, beclomethasone dipropionate, betamethasone, betamethasone acetate and betamethasone sodium phosphate, vetamethasone disodium phosphate, vetamethasone sodium phosphate, cortisone acetate, dexamethasone, dexamethasone acetate, dexamethasone sodium phosphate, flunisolide, hydrocortisone, hydrocortisone acetate, hydrocortisone cypionate, hydrocortisone sodium phosphate, hydrocortisone sodium succinate, methylprednisolone, methylprednisolone acetate, methylprednisolone sodium succinate, paramethasone acetate, prednisolone, prednisolone acetate, prednisolone sodium phosphate, prednisolone tebutate, prednisone, triamcinolone, triamcinolone acetonide, triamcinolone diacetate, triamcinolone hexacetonide and fludrocortisone acetate; immunoadjuvants and cytokines may also be employed, including interleukins (e.g., IL-1, IL-2, IL-3, IL-6), leukemia inhibitory factor, interferons, such as INF-α, TGF-beta, erythropoietin, TNF, lymphotoxin, and thrombopoietin; thalidomide and/or other agents to inhibit the production and/or action of cytokine/growth factors such as M-α, IGF-1, EGF, TGF α, IL-1β, MGSA and bFGF in different cell types involved in tumor growth and/or angiogenesis of melanoma.

[5] = 17 patients, 90 mg/M^2 Q4 days x3

With `CC(=O)O[C@H]1C(=O)[C@@]2(C)[C@H]([C@H](OC(=O)c3ccccc3)[C@]3(O)C[C@H](OC(=O)[C@H](O)[C@@H](NC(=O)c4ccccc4)c4ccccc4)C(C)=C1C3(C)C)[C@]1(OC(C)=O)CO[C@@H]1C[C@@H]2O` [paclitaxel] as the compound, how does the “partial responses in patients with melanoma” value ([1]; 24-hour infusion, 250 mg/M^2 once every three weeks (Legha 1990)) read?
The value was 3/25.

What about the “paclitaxel dose a majority of the melanoma patients could tolerate” value ([1]; Legha 1990) of the same compound?
The value was at most 200 mg/M^2.

And the objective responses ([1]; phase II, same schedule (24-hour infusion 250 mg/M^2 q3 weeks), 28 patients (Einzig 1988))?
The objective responses was “five”.

And the “maximum tolerated dose intensity under previous regimens” value ([1]; three 175 mg/M^2 doses given every 21 days (63-day period))?
Its value is 525 mg/M^2.

What about the “duration of anecdotal partial response” value [2] of the same compound?
The value was “twelve”.

And the “associated toxicity versus 200 mg/M^2 Q 21-day schedule” value ([3]; 270 mg/M^2 per 21 days, Q4D schedule)?
The value was “significantly less”.

What about the “Grade 3 abdominal pain (sufficient to interfere with function)” value [3, 5] of the same compound?
Its value is 3 patients.

And the “Grade 3 anemia (between 6.5-7.9 grams/100 ml blood)” value [3, 5]?
Its value is 2 patients.

And the “Grade 3 diarrhea (over 7-9 stools/day)” value [3, 5]?
The value was 2 patients.

And the “Grade 3 edema (>20% weight gain)” value [3, 5]?
Its value is 1 patient.

What about the “Grade 3 fatigue (objective weakness with impairment of function)” value [3, 5] of the same compound?
Its value is 4 patients.

What about the “Grade 3 granulocytopenia (between 0.5-0.9x10^3/mm^3)” value [3, 5] of the same compound?
Its value is 6 patients.

And the “Grade 3 increased alkaline phosphatase levels (between 5.1-20xN)” value [3, 5]?
The value was 2 patients.

What about the “Grade 3 toxicity, number of patients” value [3, 5] of the same compound?
The value was 11 patients.

And the “Grade 3 toxicity, number of times” value [3, 5]?
Its value is 21 times.

And the “Grade 4 BUN increase (greater than 10 times normal values)” value [3, 5]?
Its value is 1 patient.

What about the “Grade 4 granulocytopenia (less than 0.5x10^3/mm^3)” value [3, 5] of the same compound?
The value was 4 patients.

What about the “Grade 4 leukopenia (less than 1.0x10^3/mm^3)” value [3, 5] of the same compound?
The value was 2 patients.

What about the “Grade 4 toxicity, number of patients” value [3, 5] of the same compound?
The value was 3 patients.

And the major side effect ([3]; Patient #2, eight courses at 270 mg/M^2/course)?
The major side effect was “paresthesia”.

And the tumor volume decrease ([4]; Patient #1, after another two courses (four in all))?
Its tumor volume decrease is 83%.

What about the “decrease in liver metastases volume” value ([4]; Patient #1, after two courses at 270 mg/M^2/course) of the same compound?
The value was 41%.

What about the “decrease in lung metastases” value ([4]; Patient #2, 270 mg/M^2/course) of the same compound?
Its value is 43%.

What about the “tumor control maintained, number of courses” value ([4]; Patient #2, 270 mg/M^2/course) of the same compound?
The value was “eight”.

And the “decrease in tumor volume” value ([4]; Patient #3, scapular primary, after 4 courses at 270 mg/M^2/course)?
Its value is 39%.

What about the “decrease in tumor volume” value ([4]; Patient #4, right calf primary, after 4 courses at 270 mg/M^2/course) of the same compound?
The value was 15%.

What about the “decrease in tumor volume” value ([4]; Patient #5, right heel mass, after 2 courses at 270 Mg/M^2/course) of the same compound?
The value was 12%.

And the clinical response ([4]; Patient #6, during 4 courses at 270 mg/M^2/course)?
Its clinical response is “stable disease”.

What about the clinical response ([4]; Patient #7, ciliochoroidal primary, no previous chemotherapy, after 3 courses at 270 mg/M^2/course) of the same compound?
The clinical response was “stable disease”.

And the clinical response ([4]; Patient #8, tumor of dorsum of right foot, previously treated, during two courses at 270 mg/M^2/course)?
Its clinical response is “stable disease”.

What about the clinical response ([4]; Patient #9, non-choroidal melanoma, no prior chemotherapy, during 6 courses at 270 mg/M^2/course) of the same compound?
Its clinical response is “stable disease”.

What about the “objective responses, tumor reduction” value ([4]; interim analysis, first 21 patients, 90 mg/M^2/dose Q4D, advanced heavily pretreated melanoma) of the same compound?
Its value is “greater than 50%”.

What about the “reductions in hepatic tumor masses” value ([4]; interim analysis, sustained over one month, additional two patients of first 21, 90 mg/M^2/dose Q4D) of the same compound?
The value was 25-40%.
